Assay [1] deals with Glutamate receptor ionotropic, kainate 2 (Homo sapiens, UniProt Q13002). The assay is described as follows: Binding affinity for human GluR6 expressed in HEK293 cells using [3]H-kainate. The format is cell-based.
The target of assay [2] is T1, Glutamate receptor ionotropic, kainate 5 (Homo sapiens, UniProt Q16478).
T1 sequence (Q16478 whole entry): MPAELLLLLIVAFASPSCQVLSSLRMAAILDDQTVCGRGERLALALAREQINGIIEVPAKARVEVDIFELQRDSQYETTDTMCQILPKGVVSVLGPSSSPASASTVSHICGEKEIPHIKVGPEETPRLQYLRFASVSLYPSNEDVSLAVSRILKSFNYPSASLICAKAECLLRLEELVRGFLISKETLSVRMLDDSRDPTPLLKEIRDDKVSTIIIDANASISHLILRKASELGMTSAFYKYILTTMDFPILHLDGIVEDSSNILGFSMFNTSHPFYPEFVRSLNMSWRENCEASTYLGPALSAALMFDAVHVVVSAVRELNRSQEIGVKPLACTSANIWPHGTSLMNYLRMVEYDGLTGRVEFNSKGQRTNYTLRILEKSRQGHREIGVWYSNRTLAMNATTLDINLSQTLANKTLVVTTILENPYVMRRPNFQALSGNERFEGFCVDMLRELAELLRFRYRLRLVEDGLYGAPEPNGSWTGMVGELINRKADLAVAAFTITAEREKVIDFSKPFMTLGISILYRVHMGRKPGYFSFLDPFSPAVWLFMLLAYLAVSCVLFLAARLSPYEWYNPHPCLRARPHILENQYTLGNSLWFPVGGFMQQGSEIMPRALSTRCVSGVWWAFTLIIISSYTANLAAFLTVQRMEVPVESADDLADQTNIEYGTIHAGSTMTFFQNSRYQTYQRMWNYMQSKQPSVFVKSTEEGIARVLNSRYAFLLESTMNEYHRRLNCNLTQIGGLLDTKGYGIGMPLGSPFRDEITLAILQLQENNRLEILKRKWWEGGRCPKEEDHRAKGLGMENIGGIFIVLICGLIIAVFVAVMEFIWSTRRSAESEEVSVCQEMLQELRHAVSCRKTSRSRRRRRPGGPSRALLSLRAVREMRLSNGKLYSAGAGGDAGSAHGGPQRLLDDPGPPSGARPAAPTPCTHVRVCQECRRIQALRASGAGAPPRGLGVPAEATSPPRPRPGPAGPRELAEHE
The assay is described as follows: Binding affinity towards cloned human Kai-2 subunit stably expressed in cultured HEK293 cells using [3]H-kainate as radioligand. In kind it is cell-based.

Assay [3] deals with T1, Glutamate receptor ionotropic, kainate 5. The assay can be described thus: Binding affinity towards Kai-2 using [3]H-kainate as the radioligand.
The target of assay [4] is Glutamate receptor ionotropic, kainate 1 (Homo sapiens, UniProt P39086). The assay is described as follows: Binding affinity towards cloned human GluR5 subunit stably expressed in cultured HEK293 cells using [3]H-kainate as radioligand. In kind it is cell-based.

The Ki is the dissociation constant of the complex between target and ligand, obtained from inhibition or displacement. High values mean a looser hold on the target, low ones a stronger hold on the target.

The structures appear in SMILES notation. Where only a bound is given, the exact number is not on record here.

Glutamate receptor ionotropic, kainate 2, sequence (Q13002 whole entry): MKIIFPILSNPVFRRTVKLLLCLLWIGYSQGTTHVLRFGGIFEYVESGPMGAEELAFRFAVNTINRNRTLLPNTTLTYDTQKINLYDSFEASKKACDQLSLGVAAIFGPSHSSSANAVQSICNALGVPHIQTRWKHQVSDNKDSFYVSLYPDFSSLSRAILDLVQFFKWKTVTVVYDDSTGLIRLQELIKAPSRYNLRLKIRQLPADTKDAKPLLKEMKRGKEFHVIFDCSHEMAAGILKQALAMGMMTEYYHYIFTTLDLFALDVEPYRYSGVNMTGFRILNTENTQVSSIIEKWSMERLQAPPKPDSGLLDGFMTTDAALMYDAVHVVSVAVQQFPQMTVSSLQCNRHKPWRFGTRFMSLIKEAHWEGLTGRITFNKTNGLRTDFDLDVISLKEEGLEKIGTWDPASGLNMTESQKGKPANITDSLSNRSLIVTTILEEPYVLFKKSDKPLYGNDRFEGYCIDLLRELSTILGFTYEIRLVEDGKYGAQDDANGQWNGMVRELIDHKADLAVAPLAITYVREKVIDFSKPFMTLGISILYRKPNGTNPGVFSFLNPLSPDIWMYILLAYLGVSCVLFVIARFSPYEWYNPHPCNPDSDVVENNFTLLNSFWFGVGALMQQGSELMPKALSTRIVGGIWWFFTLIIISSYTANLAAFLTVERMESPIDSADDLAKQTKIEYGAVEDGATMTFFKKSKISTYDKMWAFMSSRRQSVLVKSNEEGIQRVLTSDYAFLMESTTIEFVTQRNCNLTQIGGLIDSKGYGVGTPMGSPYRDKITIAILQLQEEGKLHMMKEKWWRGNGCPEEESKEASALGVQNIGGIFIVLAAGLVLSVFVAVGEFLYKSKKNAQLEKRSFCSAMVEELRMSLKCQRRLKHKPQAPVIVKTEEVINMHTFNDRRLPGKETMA
Glutamate receptor ionotropic, kainate 1, sequence (P39086 whole entry): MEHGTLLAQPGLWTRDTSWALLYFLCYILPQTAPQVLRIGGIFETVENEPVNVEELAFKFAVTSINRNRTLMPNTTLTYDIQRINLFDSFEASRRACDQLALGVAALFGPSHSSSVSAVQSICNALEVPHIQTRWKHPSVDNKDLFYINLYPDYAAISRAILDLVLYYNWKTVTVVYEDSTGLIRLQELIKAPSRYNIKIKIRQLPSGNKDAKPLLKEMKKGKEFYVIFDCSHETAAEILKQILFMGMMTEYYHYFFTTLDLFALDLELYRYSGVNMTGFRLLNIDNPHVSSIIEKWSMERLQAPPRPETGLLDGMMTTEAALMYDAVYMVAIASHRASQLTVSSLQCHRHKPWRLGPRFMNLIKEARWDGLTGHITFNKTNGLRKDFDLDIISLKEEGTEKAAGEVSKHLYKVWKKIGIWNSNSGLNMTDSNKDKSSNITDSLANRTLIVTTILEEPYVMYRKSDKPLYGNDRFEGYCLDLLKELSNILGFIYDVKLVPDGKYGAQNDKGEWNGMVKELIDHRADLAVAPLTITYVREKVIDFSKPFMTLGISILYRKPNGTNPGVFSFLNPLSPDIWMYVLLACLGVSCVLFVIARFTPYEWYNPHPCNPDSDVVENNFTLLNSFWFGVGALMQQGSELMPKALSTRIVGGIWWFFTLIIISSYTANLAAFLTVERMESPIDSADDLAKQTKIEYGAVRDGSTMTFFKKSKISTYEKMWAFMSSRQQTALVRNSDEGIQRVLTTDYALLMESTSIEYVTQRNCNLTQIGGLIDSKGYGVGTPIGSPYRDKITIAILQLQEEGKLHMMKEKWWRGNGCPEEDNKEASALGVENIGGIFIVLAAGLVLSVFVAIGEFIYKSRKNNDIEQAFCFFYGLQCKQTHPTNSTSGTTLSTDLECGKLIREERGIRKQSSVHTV

As for `O=C(O)Cn1c(=O)c(=O)[nH]c2cc([N+](=O)[O-])c(-n3cccc3)cc21`, the values for the Ki in assay [1] and in assay [2] were 3.9 µM and 1.3 µM, respectively.
`O=C(O)Cn1c(=O)c(=O)[nH]c2cc([N+](=O)[O-])c(-n3ccc(CN4CCN(CCc5ccccc5)CC4)c3)cc21`: the Ki was found to be 1.4 µM in assay [1] and 25 µM in assay [2].
Regarding `O=C(O)Cn1c(=O)c(=O)[nH]c2cc([N+](=O)[O-])c(-n3ccc(C(=O)O)c3)cc21`, the Ki worked out at 11 µM in assay [3], 1.4 µM in assay [4] and 5.8 µM in assay [1].
In the case of `O=C(O)Cn1c(=O)c(=O)[nH]c2cc([N+](=O)[O-])c(-n3ccc(CN4CCN(Cc5ccccc5)CC4)c3)cc21`, the Ki is 4.1 µM in assay [1] and 20 µM in assay [2].
`O=C(O)CCn1c(=O)c(=O)[nH]c2cc([N+](=O)[O-])c(-n3cccc3)cc21`: the Ki is 2.4 µM in assay [4], 1.2 µM in assay [1] and 25 µM in assay [2].
`O=C(O)Cn1c(=O)c(=O)[nH]c2cc([N+](=O)[O-])c(-n3ccc(CN4CCCCC4)c3)cc21`: the Ki in assay [1] is 28 µM; in assay [2], > 30 µM.
Turning to `O=C(O)Cn1c(=O)c(=O)[nH]c2cc([N+](=O)[O-])c(-n3ccc(CNCCCc4ccccc4)c3)cc21`, the values for the Ki in assay [1] and in assay [2] were 6.2 µM and 20 µM, respectively.
In the case of `O=C(O)Cn1c(=O)c(=O)[nH]c2cc(C(F)(F)F)c(-n3ccc(CNC(=O)Nc4ccc([N+](=O)[O-])cc4)c3)cc21`, the Ki was found to be 12 µM in assay [3], 0.1 µM in assay [4] and 0.61 µM in assay [1].
For the molecule `CN(Cc1ccccc1)Cc1ccn(-c2cc3c(cc2[N+](=O)[O-])[nH]c(=O)c(=O)n3CCC(=O)O)c1`, the Ki is 23 µM in assay [1] and > 30 µM in assay [2].
Take `O=C(O)Cn1c(=O)c(=O)[nH]c2cc([N+](=O)[O-])c(-n3ccc(CN4CCC(c5ccccc5)CC4)c3)cc21`: the Ki in assay [1] came to 3.6 µM; in assay [2] it was 18 µM.
Regarding `NCc1ccn(-c2cc3c(cc2[N+](=O)[O-])[nH]c(=O)c(=O)n3CC(=O)O)c1`, the Ki in assay [3] was 9.8 µM; in assay [1], 1.5 µM.

These data come from ChEMBL document CHEMBL1135949, “Pyrrolylquinoxalinediones carrying a piperazine residue represent highly potent and selective ligands to the homomeric kainate receptor GluR5” (Bioorg Med Chem Lett, 2002).
